System: MCF7/ADR cells
Assay: Cell survival rate assay with doxorubicin
Type: cell-based, human
Conditions: no treatment group (no vector)
Experimental: Cells were seeded in a 96-well flat bottom microplate at 1000 cells per well. After 24 hours of incubation, cells were treated with Ad-LacZ and Ad-REIC at 100 MOI in serum free medium for 2 hours, followed by exchange with fresh complete medium. After 48 hours, floating dead cells were removed by medium exchange. Adhering cells were cultured with doxorubicin at various concentrations for 72 hours. At the end of incubation, cell survival rates were measured using CellTiter96 (trademark) Aqueous One Solution Cell Proliferation Assay (Promega Corp.).

With `COc1cccc2c1C(=O)c1c(O)c3c(c(O)c1C2=O)C[C@@](O)(C(=O)CO)C[C@@H]3O[C@H]1C[C@H](N)[C@H](O)[C@H](C)O1` [doxorubicin] the cell survival % (10 μM doxorubicin) was 88.1% and the cell survival rates (25 μM doxorubicin) was 45.9%.

— patent publication US8946173B2, “Cancer cell death inducing agent having effects of potentiating anticancer drug against anticancer-drug-resistant cancer” (Momotaro-Gene Inc., priority 2007, dated 2015)
